Assay results as given in PubChem BioAssay (NCI).
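GI50 = concentration required for 50% inhibition of growth. At the TGI there is no net growth.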

Assays:
Assay in all cases: inhibition of tumour cell growth, NCI panel, 384-well format
[1] = system: NCI-H322M lung
[2] = system: SR leukemia
[3] = system: SN12C renal
[4] = system: M14 melanoma
[5] = system: OVCAR-4 ovarian
[6] = system: MDA-MB-468 breast
[7] = system: MOLT-4 leukemia
[8] = system: UACC-257 melanoma
[9] = system: BT-549 breast
[10] = system: NCI-H460 NSCLC
[11] = system: SK-MEL-28 melanoma
[12] = system: SNB-19 CNS
[13] = system: A549 NSCLC
[14] = system: A498 renal
[15] = system: NCI-H23 lung
[16] = system: UACC-62 melanoma
[17] = system: HCC-2998 colon
[18] = system: OVCAR-8 ovarian
[19] = system: HOP-62 NSCLC
[20] = system: HT29 colon
[21] = system: RXF 393 renal
[22] = system: 786-0 renal
[23] = system: HCT-116 colon
[24] = system: HL-60(TB) leukemia
[25] = system: U251 glioblastoma
[26] = system: NCI/ADR-RES ovarian
[27] = system: EKVX NSCLC
[28] = system: MCF7 breast
[29] = system: COLO 205 colon
[30] = system: SF-268 CNS
[31] = system: HS 578T breast
[32] = system: MDA-MB-435 melanoma
[33] = system: TK-10 renal
[34] = system: SF-539 CNS
[35] = system: IGROV1 ovarian
[36] = system: MALME-3M melanoma
[37] = system: PC-3 prostate
[38] = system: KM12 colon
[39] = system: SK-OV-3 ovarian
[40] = system: RPMI-8226 leukemia
[41] = system: SK-MEL-5 melanoma
[42] = system: CCRF-CEM leukemia
[43] = system: SNB-75 CNS
[44] = system: K-562 leukemia
[45] = system: OVCAR-3 ovarian
[46] = system: HCT-15 colon
[47] = system: MDA-MB-231 breast
[48] = system: LOX IMVI melanoma
[49] = system: SK-MEL-2 melanoma
[50] = system: HOP-92 NSCLC
[51] = system: T-47D breast
[52] = system: SF-295 CNS
[53] = system: UO-31 renal
[54] = system: NCI-H522 lung
[55] = system: CAKI-1 renal
[56] = system: NCI-H226 lung
[57] = system: SW-620 colon
[58] = system: DU-145 prostate
[59] = system: OVCAR-5 ovarian
[60] = system: ACHN renal

Compound: CN(c1ncccc1CNc1nc(Nc2ccc3c(c2)CC(=O)N3)ncc1C(F)(F)F)S(C)(=O)=O
- GI50 [1]: 2.01 µM
- TGI [1]: 4.45 µM
- GI50 [2]: 0.501 µM
- TGI [2]: 1.67 µM
- GI50 [3]: 2.4 µM
- TGI [3]: 5.72 µM
- GI50 [4]: 1.75 µM
- TGI [4]: 4.24 µM
- GI50 [5]: 2.48 µM
- TGI [5]: 8.64 µM
- GI50 [6]: 1.85 µM
- TGI [6]: 3.38 µM
- GI50 [7]: 0.431 µM
- TGI [7]: 1.3 µM
- GI50 [8]: 2.01 µM
- TGI [8]: 4.34 µM
- GI50 [9]: 1.74 µM
- TGI [9]: 3.88 µM
- GI50 [10]: 1.61 µM
- TGI [10]: 3.29 µM
- GI50 [11]: 1.85 µM
- TGI [11]: 4.2 µM
- GI50 [12]: 3.39 µM
- TGI [12]: > 100 µM
- GI50 [13]: 3.15 µM
- TGI [13]: > 100 µM
- GI50 [14]: 2.91 µM
- TGI [14]: > 100 µM
- GI50 [15]: 1.79 µM
- TGI [15]: 3.34 µM
- GI50 [16]: 1.39 µM
- TGI [16]: 2.86 µM
- GI50 [17]: 1.19 µM
- TGI [17]: 3.21 µM
- GI50 [18]: 3.31 µM
- TGI [18]: > 100 µM
- GI50 [19]: 1.97 µM
- TGI [19]: 7.83 µM
- GI50 [20]: 3.74 µM
- TGI [20]: > 100 µM
- GI50 [21]: 1.2 µM
- TGI [21]: 2.69 µM
- GI50 [22]: 2.44 µM
- TGI [22]: 7.78 µM
- GI50 [23]: 1.89 µM
- TGI [23]: > 100 µM
- GI50 [24]: 1.7 µM
- TGI [24]: 3.09 µM
- GI50 [25]: 2.88 µM
- TGI [25]: > 100 µM
- GI50 [26]: 26 µM
- TGI [26]: 95.6 µM
- GI50 [27]: 1.49 µM
- TGI [27]: 4.17 µM
- GI50 [28]: 1.02 µM
- TGI [28]: 8.25 µM
- GI50 [29]: 1.46 µM
- TGI [29]: 4.28 µM
- GI50 [30]: 1.82 µM
- TGI [30]: 3.99 µM
- GI50 [31]: 1.62 µM
- TGI [31]: 3.7 µM
- GI50 [32]: 2.29 µM
- TGI [32]: 7.7 µM
- GI50 [33]: 2.79 µM
- TGI [33]: > 100 µM
- GI50 [34]: 1.86 µM
- TGI [34]: 3.7 µM
- GI50 [35]: 2.42 µM
- TGI [35]: > 100 µM
- GI50 [36]: 2.2 µM
- TGI [36]: 4.94 µM
- GI50 [37]: 2.51 µM
- TGI [37]: > 100 µM
- GI50 [38]: 0.218 µM
- TGI [38]: 1.72 µM
- GI50 [39]: 3.1 µM
- TGI [39]: > 100 µM
- GI50 [40]: 1.66 µM
- TGI [40]: 3.03 µM
- GI50 [41]: 1.63 µM
- TGI [41]: 3.11 µM
- GI50 [42]: 1.71 µM
- TGI [42]: 3.33 µM
- GI50 [43]: 1.55 µM
- TGI [43]: 3.6 µM
- GI50 [44]: 2.83 µM
- TGI [44]: > 100 µM
- GI50 [45]: 2 µM
- TGI [45]: 4.74 µM
- GI50 [46]: 3.81 µM
- TGI [46]: 17 µM
- GI50 [47]: 2.55 µM
- TGI [47]: > 100 µM
- GI50 [48]: 1.54 µM
- TGI [48]: 3.58 µM
- GI50 [49]: 1.85 µM
- TGI [49]: 3.58 µM

Compound: O=C(Nc1ccc2[nH]nc(-c3ccncc3)c2c1)[C@@H]1CCN(CC(=O)N2CCN(c3ccc(-c4ncccn4)cc3)CC2)C1
- GI50 [1]: 0.623 µM
- TGI [1]: 31.6 µM
- GI50 [2]: 2.68 µM
- TGI [2]: 12 µM
- GI50 [3]: 2.28 µM
- TGI [3]: > 100 µM
- GI50 [50]: 0.417 µM
- TGI [50]: 2.18 µM
- GI50 [51]: 2.96 µM
- TGI [51]: 9.04 µM
- GI50 [4]: 0.0253 µM
- TGI [4]: 0.198 µM
- GI50 [5]: 48.4 µM
- TGI [5]: > 100 µM
- GI50 [6]: 3.55 µM
- TGI [6]: 33.8 µM
- GI50 [7]: 1.42 µM
- TGI [7]: 3 µM
- GI50 [8]: 0.0268 µM
- TGI [8]: 0.271 µM
- GI50 [9]: 2.71 µM
- TGI [9]: 16.6 µM
- GI50 [10]: 0.379 µM
- TGI [10]: 17.6 µM
- GI50 [52]: 13.1 µM
- TGI [52]: 37.8 µM
- GI50 [53]: 2.28 µM
- TGI [53]: 16.1 µM
- GI50 [11]: 0.0186 µM
- TGI [11]: 0.174 µM
- GI50 [12]: > 100 µM
- TGI [12]: > 100 µM
- GI50 [13]: 0.628 µM
- TGI [13]: > 100 µM
- GI50 [14]: 1.78 µM
- TGI [14]: 10 µM
- GI50 [15]: 0.0571 µM
- TGI [15]: 0.678 µM
- GI50 [16]: 0.0166 µM
- TGI [16]: 0.385 µM
- GI50 [18]: 2.83 µM
- TGI [18]: 15 µM
- GI50 [54]: 9.33 µM
- TGI [54]: 22.1 µM
- GI50 [19]: 0.661 µM
- TGI [19]: 17.4 µM
- GI50 [20]: 0.069 µM
- TGI [20]: 14.2 µM
- GI50 [55]: 0.507 µM
- TGI [55]: 20.6 µM
- GI50 [21]: 1.05 µM
- TGI [21]: 3.55 µM
- GI50 [22]: 9.92 µM
- TGI [22]: 23.6 µM
- GI50 [23]: 0.0687 µM
- TGI [23]: 1.26 µM
- GI50 [24]: 0.0163 µM
- TGI [24]: 1.26 µM
- GI50 [25]: 1.79 µM
- TGI [25]: 22.2 µM
- GI50 [27]: 2.28 µM
- TGI [27]: 83 µM
- GI50 [28]: 11.6 µM
- TGI [28]: 26.9 µM
- GI50 [29]: 0.0281 µM
- TGI [29]: 0.43 µM
- GI50 [30]: 17.9 µM
- TGI [30]: 73.4 µM
- GI50 [31]: 10.8 µM
- TGI [31]: 36 µM
- GI50 [32]: 0.0652 µM
- TGI [32]: > 100 µM
- GI50 [33]: 0.853 µM
- TGI [33]: > 100 µM
- GI50 [34]: 0.69 µM
- TGI [34]: 9.72 µM
- GI50 [56]: 0.735 µM
- TGI [56]: 14.6 µM
- GI50 [35]: 0.438 µM
- TGI [35]: 35.7 µM
- TGI [36]: 0.0442 µM
- GI50 [57]: 0.0863 µM
- TGI [57]: > 100 µM
- GI50 [37]: 5.37 µM
- TGI [37]: 20.5 µM
- GI50 [38]: 5.61 µM
- TGI [38]: > 100 µM
- GI50 [39]: 20.3 µM
- TGI [39]: 90.7 µM
- GI50 [41]: 0.0781 µM
- TGI [41]: 4.43 µM
- GI50 [43]: 11.6 µM
- TGI [43]: 25.4 µM
- GI50 [44]: 0.273 µM
- TGI [44]: 12.8 µM
- GI50 [45]: 19.8 µM
- TGI [45]: > 100 µM
- GI50 [46]: 5.45 µM
- TGI [46]: 29.1 µM
- GI50 [58]: 4.59 µM
- TGI [58]: > 100 µM
- GI50 [47]: 0.315 µM
- TGI [47]: 32.9 µM
- GI50 [59]: 0.16 µM
- TGI [59]: > 100 µM
- GI50 [60]: 8.76 µM
- TGI [60]: > 100 µM
- GI50 [49]: 0.0375 µM
- TGI [49]: 0.192 µM
